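Tested at 5 concentrations; 48 h exposure; 96-well plates; endpoints linearly interpolated, else capped at highest concentration. GI50 marks 50% less growth.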 Activity calls are given as the source filed them. Cut-off read from the data, not from the text of the source: active = GI50 up to about 1.1 µM and inactive = higher.
Assays:
Assay in all cases: NCI-60 cell line screen, 48 h
DLD-1 = system: DLD-1
DMS-114 = system: DMS-114
DMS-273 = system: DMS-273
HOP-18 = system: HOP-18
KM-20L2 = system: KM-20L2
LXFL 529 = system: LXFL 529
M19-MEL = system: M19-MEL
XF498 = system: XF498
RXF 631 = system: RXF 631

Measured: GI50

O=C(CSc1ncnc2[nH]cnc12)c1ccccc1
inactive: DLD-1 > 100 µM | DMS-114 > 100 µM | DMS-273 > 100 µM | HOP-18 > 100 µM | KM-20L2 > 100 µM | LXFL 529 > 100 µM | M19-MEL > 100 µM | XF498 > 100 µM

COC(=O)Cc1cc(=O)n2c3ccccc3n(C)c2c1C#N
inactive: DLD-1 > 100 µM | DMS-114 > 100 µM | DMS-273 > 100 µM | KM-20L2 > 100 µM | M19-MEL > 100 µM | XF498 > 100 µM

COC1OC(CO)C(O)C(NC(=O)N(C)N=O)C1O (stereo unspecified)
inactive: DLD-1 > 100 µM | DMS-114 > 100 µM | DMS-273 > 100 µM | HOP-18 > 100 µM | KM-20L2 > 100 µM | LXFL 529 > 100 µM | M19-MEL > 100 µM | XF498 > 100 µM

CN(C)C(=S)/N=c1\ss/c(=N\S(=O)(=O)c2ccccc2)n1C
inactive: DLD-1 > 100 µM | DMS-114 > 100 µM | DMS-273 > 100 µM | HOP-18 > 100 µM | KM-20L2 > 100 µM | LXFL 529 > 100 µM | M19-MEL > 100 µM | XF498 > 100 µM

[N-]=[N+]=NC(CBr)c1cn([C@H]2C[C@H](O)[C@@H](CO)O2)c(=O)[nH]c1=O (stereo partly specified)
inactive: DLD-1 > 100 µM | DMS-114 > 100 µM | DMS-273 > 100 µM | HOP-18 1.99 µM | KM-20L2 > 100 µM | LXFL 529 > 100 µM | M19-MEL > 100 µM

O=C(O)CNc1c2ccccc2[n+]([O-])c2ccccc12
inactive: DLD-1 87.3 µM | DMS-114 47.9 µM | DMS-273 81.8 µM | HOP-18 36.1 µM | KM-20L2 > 100 µM | LXFL 529 34.6 µM | M19-MEL > 100 µM | RXF 631 > 100 µM

CN1C(=O)C2C3C=C4c5ccccc5N(c5ccccc5)C4(C2C1=O)[C@H]1C(=O)N(C)C(=O)[C@@H]31 (stereo partly specified)
inactive: DLD-1 > 100 µM | DMS-114 66.4 µM | KM-20L2 > 100 µM | LXFL 529 > 100 µM | M19-MEL > 100 µM | XF498 > 100 µM

COc1ccc(N2C(=O)[C@@H](N=[N+]=[N-])[C@@H]2[C@H]2COC(C)(C)O2)cc1
inactive: DMS-114 > 100 µM | DMS-273 > 100 µM | HOP-18 > 100 µM | KM-20L2 > 100 µM | LXFL 529 > 100 µM | M19-MEL > 100 µM

CN(C)CCNC(=O)c1cccc2nc3cc(Cl)ccc3nc12
inactive: DLD-1 2.68 µM | DMS-114 1.83 µM | DMS-273 1.98 µM | HOP-18 17.5 µM | KM-20L2 2.81 µM | LXFL 529 2.14 µM | M19-MEL 1.8 µM

N#CC(C(=O)CCCC(=O)Nc1ccc(Cl)cc1Cl)c1ccc(Cl)cc1 (stereo unspecified)
inactive: DLD-1 > 100 µM | DMS-273 > 100 µM | HOP-18 31.7 µM | KM-20L2 > 100 µM | LXFL 529 > 100 µM | RXF 631 > 100 µM | XF498 > 100 µM

CCOC(=O)N1C(c2ccccc2)C=CC(c2ccccc2)N1C(=O)OCC (stereo unspecified)
inactive: DLD-1 > 100 µM | DMS-114 > 100 µM | HOP-18 > 100 µM | KM-20L2 > 100 µM | M19-MEL > 100 µM | XF498 > 100 µM

CCCCOCc1cc(CN2CCN(C)CC2)c(O)c2ncccc12
inactive: DLD-1 8.05 µM | DMS-114 6.38 µM | DMS-273 12.1 µM | HOP-18 5.35 µM | KM-20L2 26.4 µM | LXFL 529 11.9 µM | M19-MEL 26.7 µM | RXF 631 53.7 µM | XF498 30.8 µM

COc1ccc(C(=O)C(C(=O)C(=O)Nc2nc3ccc(OC)cc3s2)c2ccc(OC)cc2)cc1 (stereo unspecified)
inactive: DLD-1 > 100 µM | DMS-114 90.2 µM | DMS-273 > 100 µM | HOP-18 90.6 µM | KM-20L2 > 100 µM | LXFL 529 > 100 µM | M19-MEL > 100 µM | RXF 631 > 100 µM | XF498 > 100 µM

OCCc1cnco1
inactive: DLD-1 > 100 µM | DMS-114 > 100 µM | DMS-273 63.8 µM | HOP-18 > 100 µM | KM-20L2 > 100 µM | LXFL 529 > 100 µM | M19-MEL > 100 µM

Cn1nc(-c2ccccc2)c(C(=O)/C=C/c2ccc(Cl)cc2)c(N2CCOCC2)c1=O
inactive: DLD-1 2.96 µM | DMS-114 2.78 µM | DMS-273 3.3 µM | HOP-18 4.48 µM | KM-20L2 3.45 µM | LXFL 529 2.92 µM | M19-MEL 5.24 µM | RXF 631 4.79 µM

COc1ccc(C(=O)NCCN(C)C)c2nc3ccccc3nc12
inactive: DLD-1 4.23 µM | DMS-114 3.39 µM | DMS-273 4.6 µM | HOP-18 > 30.8 µM | KM-20L2 4.95 µM | LXFL 529 6.7 µM | M19-MEL 3.15 µM | RXF 631 9.12 µM

CC(N)Cc1ccc(C(=O)Cl)cc1 (stereo unspecified)
inactive: DLD-1 > 100 µM | DMS-114 > 100 µM | KM-20L2 > 100 µM | LXFL 529 > 100 µM | M19-MEL > 100 µM | RXF 631 > 100 µM | XF498 > 100 µM

Nc1ncnc2c1ncn2C1OC(CSCC(F)(F)F)C(O)C1O (stereo unspecified)
inactive: DLD-1 > 100 µM | DMS-273 > 100 µM | HOP-18 > 100 µM | KM-20L2 > 100 µM | LXFL 529 > 100 µM | M19-MEL > 100 µM | XF498 > 100 µM

Nc1ccn(CCOC(=O)c2ccccc2)c(=O)n1
inactive: DLD-1 > 100 µM | DMS-273 > 100 µM | HOP-18 > 100 µM | KM-20L2 > 100 µM | LXFL 529 > 100 µM | RXF 631 > 100 µM

CN(C(=O)C12C3C4C1C1C2C3C41C(=O)N(C)C(C)(C)C)C(C)(C)C (stereo unspecified)
inactive: DMS-114 > 50 µM | DMS-273 > 50 µM | KM-20L2 > 50 µM | LXFL 529 > 50 µM | M19-MEL > 50 µM | RXF 631 > 50 µM | XF498 > 50 µM

N#C/C(=C\c1ccccc1O)C(N)=O
inactive: DLD-1 70.1 µM | DMS-114 44.6 µM | DMS-273 > 100 µM | KM-20L2 > 100 µM | LXFL 529 72.8 µM | M19-MEL > 100 µM | RXF 631 > 100 µM | XF498 28.1 µM

c1ccc2cc3[s+]snc3cc2c1
inactive: DLD-1 > 100 µM | DMS-273 > 100 µM | HOP-18 > 100 µM | KM-20L2 > 100 µM | LXFL 529 85.1 µM | M19-MEL > 100 µM | RXF 631 > 100 µM | XF498 > 100 µM

From ChEMBL document CHEMBL1201862, “PubChem BioAssay data set” (2004)
